# According to patent US10835542B2, “9-aminomethyl minocycline compounds and use thereof in treating community-acquired bacterial pneumonia (CABP)” (Paratek Pharmaceuticals, Inc., priority 2016, dated 2020):
# “And” between values parts separate entries of the source, which are not always exact repeats. Identical values can stand only once. Like-named read-outs stand apart in the source and are kept apart here.
# Key:
# [1] = Phase 1 multiple oral dose study: safety and tolerability
# [2] = tested on: Community-Acquired Bacterial Pneumonia (CABP); experiment: Phase 3 CABP study: Early Clinical Response (72-120 h after first dose); type: in vivo, human; details: ITT
# Klebsiella pneumoniae = experiment: Clinical success at PTE by baseline pathogen, microITT; type: in vivo, human; details: N1 = 13 (Compound 1), 13 (Moxifloxacin)
# [3] = Lung tissue versus plasma concentrations in mice; details: mouse
# Escherichia coli = experiment: Clinical success at PTE by baseline pathogen, microITT; type: in vivo, human; details: N1 = 6 (Compound 1), 7 (Moxifloxacin)
# cSSSI = experiment: Phase 2 and Phase 3 studies in complicated skin and skin structure infection (cSSSI); type: in vivo, human
# [4] = Phase 1 multiple oral dose study: urine PK; type: in vivo, human
# Description: Urine samples were only collected from a subset of subjects because analysis of urine PK was added by an amendment to the study protocol after the study was already underway.
# Additional parameters Ae0-4, Ae4-8, Ae8-12, Ae12-24, and Ae0-24 were also calculated.
# baseline pathogen = type: in vivo, human; details: PTE, microITT
# [5] = Omadacycline Overall (n = 26), Safety Population
# [6] = subject who received 450 mg in Period 1 then 300 mg in Period 2
smiles,measurement,setting,value
"CN(C)c1cc(CNCC(C)(C)C)c(O)c2c1C[C@H]1C[C@H]3[C@H](N(C)C)C(O)=C(C(N)=O)C(=O)[C@@]3(O)C(O)=C1C2=O [Compound 1, 9-[(2,2-dimethyl-propylamino)-methyl]-minocycline]","TEAEs leading to early discontinuation of study drug: All, n (%)",[1]; [5],3 (11.5) n (%)
same,"TEAEs leading to early discontinuation of study drug: Lipase increased, n (%)",[1]; [5],1 (3.8) n (%)
same,"TEAEs leading to early discontinuation of study drug: Nausea, n (%)",[1]; [5],1 (3.8) n (%)
same,"TEAEs leading to early discontinuation of study drug: Syncope, n (%)",[1]; [5],0 n (%)
same,"TEAEs leading to early discontinuation of study drug: Vomiting, n (%)",[1]; [5],1 (3.8) n (%)
same,n (%) of subjects with Any TEAE,[1]; [5],10 (38.5) n (%)
same,n (%) of subjects with Treatment-related TEAE,[1]; [5],9 (34.6) n (%)
same,serious TEAEs (SAEs),[1]; multiple oral doses 300-600 mg,no serious TEAEs
same,severity of TEAEs,[1]; multiple oral doses 300-600 mg,either mild or moderate
same,highest individual ALT value,[1]; [6],150 IU/L
same,highest individual ALT value above the upper limit of normal,[1]; [6],2.7 fold
same,subjects reporting TEAEs,"[1]; subjects that received omadacycline (300, 450, 600 mg)",38.5%
same,"Difference (95% CI) in Early Clinical Success rate, Compound 1 minus moxifloxacin",[2],"−1.6% and −1.6 (−7.1, 3.8) %"
same,Early Clinical Response: Clinical Failure,[2]; 72-120 h after first infusion,49 (12.7) n (%)
same,Early Clinical Response: Clinical Failure or Indeterminate,[2]; 72-120 h after first infusion,73 (18.9) n (%)
same,Early Clinical Response: Clinical Success,[2]; 72-120 h after first infusion,313 (81.1) n (%)
same,Early Clinical Response: Indeterminate,[2]; 72-120 h after first infusion,24 (6.2) n (%)
same,Clinical Success n (%),Klebsiella pneumoniae,10 (76.9) n (%)
same,Kp,[3],3.7 to 4.4
same,Clinical Success n (%),Escherichia coli,4 (66.7) n (%)
same,tolerability in cSSSI studies,cSSSI; Phase 2 (219 subjects) and terminated Phase 3 (143 subjects),well-tolerated
same,efficacy in cSSSI studies,cSSSI; versus comparator linezolid,efficacy similar to an established comparator (linezolid)
same,"Ae0-24, Mean (CV)","[4]; 300 mg, Day 1 (n = 2)",20.37 (8.3) mg
same,"Fe0-24, Mean (CV)","[4]; 300 mg, Day 1 (n = 2)",6.79 (8.3) %
same,"Ae0-24, Mean (CV)","[4]; 300 mg, Day 5 (n = 3)",26.14 (14.6) mg
same,"Fe0-24, Mean (CV)","[4]; 300 mg, Day 5 (n = 3)",8.71 (14.6) %
same,"Ae0-24, Mean (CV)","[4]; 450 mg, Day 5 (n = 5)",30.81 (33.0) mg
same,"Fe0-24, Mean (CV)","[4]; 450 mg, Day 5 (n = 5)",6.85 (33.0) %
same,"Ae0-24, Mean (CV)","[4]; 600 mg, Day 1 (n = 1)",31.96 mg
same,"Fe0-24, Mean (CV)","[4]; 600 mg, Day 1 (n = 1)",5.33%
same,"Ae0-24, Mean (CV)","[4]; 600 mg, Day 5 (n = 4)",51.82 (14.8) mg
same,"Fe0-24, Mean (CV)","[4]; 600 mg, Day 5 (n = 4)",8.64 (14.8) %
same,Clinical Success n (%),"baseline pathogen; baseline pathogen Acinetobacter baumanii complex, N1 = 0 (Compound 1), 1 (Moxifloxacin)",0 n (%)
same,Clinical Success n (%),"baseline pathogen; baseline pathogen Acinetobacter baumanii, N1 = 0 (Compound 1), 1 (Moxifloxacin)",0 n (%)
same,Clinical Success n (%),"baseline pathogen; baseline pathogen Acinetobacter junii, N1 = 1 (Compound 1), 0 (Moxifloxacin)",1 (100.0) n (%)
same,Clinical Success n (%),"baseline pathogen; baseline pathogen Acinetobacter lwoffii, N1 = 1 (Compound 1), 0 (Moxifloxacin)",1 (100.0) n (%)
same,Clinical Success n (%),"baseline pathogen; baseline pathogen Citrobacter braakii, N1 = 0 (Compound 1), 1 (Moxifloxacin)",0 n (%)
same,Clinical Success n (%),"baseline pathogen; baseline pathogen Citrobacter freundii, N1 = 0 (Compound 1), 1 (Moxifloxacin)",0 n (%)
same,Clinical Success n (%),"baseline pathogen; baseline pathogen Enterobacter cloacae, N1 = 2 (Compound 1), 4 (Moxifloxacin)",2 (100.0) n (%)
same,Clinical Success n (%),"baseline pathogen; baseline pathogen Haemophilus haemolyticus, N1 = 1 (Compound 1), 0 (Moxifloxacin)",1 (100.0) n (%)
same,Clinical Success n (%),"baseline pathogen; baseline pathogen Haemophilus parahaemolyticus, N1 = 2 (Compound 1), 2 (Moxifloxacin)",2 (100.0) n (%)
same,Clinical Success n (%),"baseline pathogen; baseline pathogen Klebsiella oxytoca, N1 = 1 (Compound 1), 4 (Moxifloxacin)",0 n (%)
same,Clinical Success n (%),"baseline pathogen; baseline pathogen Morganella morganii, N1 = 1 (Compound 1), 0 (Moxifloxacin)",1 (100.0) n (%)
same,Clinical Success n (%),"baseline pathogen; baseline pathogen Neisseria meningitidis, N1 = 1 (Compound 1), 1 (Moxifloxacin)",1 (100.0) n (%)
same,Clinical Success n (%),"baseline pathogen; baseline pathogen Prevotella oris, N1 = 0 (Compound 1), 1 (Moxifloxacin)",0 n (%)
same,Clinical Success n (%),"baseline pathogen; baseline pathogen Proteus mirabilis, N1 = 2 (Compound 1), 2 (Moxifloxacin)",1 (50.0) n (%)
same,Clinical Success n (%),"baseline pathogen; baseline pathogen Pseudomonas aeruginosa, N1 = 3 (Compound 1), 5 (Moxifloxacin)",2 (66.7) n (%)
same,Clinical Success n (%),"baseline pathogen; baseline pathogen Pseudomonas putida, N1 = 0 (Compound 1), 1 (Moxifloxacin)",0 n (%)
same,Clinical Success n (%),"baseline pathogen; baseline pathogen Serratia marcescens, N1 = 1 (Compound 1), 0 (Moxifloxacin)",1 (100.0) n (%)
same,Clinical Success n (%),"baseline pathogen; baseline pathogen Stenotrophomonas maltophilia, N1 = 0 (Compound 1), 2 (Moxifloxacin)",0 n (%)
same,Clinical Success n (%),"baseline pathogen; baseline pathogen Streptococcus agalactiae, N1 = 2 (Compound 1), 3 (Moxifloxacin)",2 (100.0) n (%)
same,Clinical Success n (%),"baseline pathogen; baseline pathogen Streptococcus anginosus, N1 = 0 (Compound 1), 1 (Moxifloxacin)",0 n (%)
same,Clinical Success n (%),"baseline pathogen; baseline pathogen Streptococcus constellatus, N1 = 1 (Compound 1), 1 (Moxifloxacin)",1 (100.0) n (%)
same,Clinical Success n (%),"baseline pathogen; baseline pathogen Streptococcus gordonii, N1 = 0 (Compound 1), 1 (Moxifloxacin)",0 n (%)
same,Clinical Success n (%),"baseline pathogen; baseline pathogen Streptococcus mitis group, N1 = 1 (Compound 1), 2 (Moxifloxacin)",1 (100.0) n (%)
same,Clinical Success n (%),"baseline pathogen; baseline pathogen Streptococcus mitis, N1 = 3 (Compound 1), 5 (Moxifloxacin)",3 (100.0) n (%)
same,Clinical Success n (%),"baseline pathogen; baseline pathogen Streptococcus oralis, N1 = 1 (Compound 1), 0 (Moxifloxacin)",1 (100.0) n (%)
same,Clinical Success n (%),"baseline pathogen; baseline pathogen Streptococcus parasanguinis, N1 = 0 (Compound 1), 2 (Moxifloxacin)",0 n (%)
same,Clinical Success n (%),"baseline pathogen; baseline pathogen Streptococcus salivarius, N1 = 1 (Compound 1), 3 (Moxifloxacin)",1 (100.0) n (%)
same,Clinical Success n (%),"baseline pathogen; baseline pathogen Streptococcus sanguinis, N1 = 0 (Compound 1), 2 (Moxifloxacin)",0 n (%)
